Experiments:
[1] = system: HIV-1 infected monocytes (U1); experiment: RT-qPCR of intracellular HIV-1 TAR and env RNA in U1 cells (viral transcription); type: cell-based; conditions: for intracellular TAR RNA (HIV-1 transcription) / intracellular env RNA (HIV-1 transcription): 1, 5, 20, 50 μM, 5 days, FIG. 4A; for intracellular TAR RNA / intracellular env RNA: CBD 1, 5, 10 μM, THC 1, 5, 10 μg/mL every day for 5 days, FIG. 15A
Protocol: HIV-1 infected monocytes (U1) were treated with CBD (1, 5, 20, and 50 μM) or THC (1, 5, 20, and 50 μM) for 5 days. Total RNA was isolated from cell pellets and analyzed by RT-qpCR for TAR RNA and env RNA. Student's t-test was used to determine significance (***=p<0.001, and**=p<0.01).
FIGS. 15A-15C are graphs and gels showing cannabidiols lower intracellular viral transcription and downstream viral products. U1 cells (1×10^6) were treated with a titration of CBD (1, 5, 10 μM) and THC (1, 5, 10 μg/mL) every day for 5 days. A) Intracellular RNA was isolated and analyzed through RT-qPCR for HIV-1 viral transcripts TAR and env. Each bar represents an average of three independent replicates. B) U1 cells (2×10^6) were treated with a titration of CBD (1, 5, 10 μM) every day for 5 days. Cells pellets were lysed, run through SDS-PAGE, and western blotted for (p-)/NF-κB, autophagosomal markers (p63, LC3), EV biogenesis marker VPS4, viral markers (gp120, Nef, p24), and Actin. C) U1 cells (5×10^6) were treated±CBD (10 μM) and Flavopiridol hydrochloride (50 nM; indicated as Flavo) and incubated for the following time points: 0 minutes, 2 hours and 6 hours. Cells were cross-linked with 1% formaldehyde solution and ChIP-ed for IgG and Pol II. ChIP DNA samples were analyzed via qPCR for TAR and env. Student's t-test was used for statistical analysis, where *p-value≤0.05; **p-value≤0.01, ***p-value≤0.001.
To determine if the observed reduction in EV-associated viral RNA was a result of a decrease in HIV-1 transcription rather than an alteration in the packaging of these viral RNAs into EVs, intracellular RNA was analyzed to assess for changes HIV-1 transcription. […] The differences in inhibition of short transcripts imply targeting at different stages of transcription with CBD inhibiting transcription initiation and THC inhibiting transcription elongation. These differences in transcriptional regulation can be further analyzed using a three-state L TR mathematical model to depict changes in viral RNA and protein production over extended periods of time (FIG. 4B).
For the isolation of total RNA, cells were harvested, washed once in 1×PBS without calcium or magnesium and resuspended in 50 μL of 1×PBS. For the isolation of total RNA from EVs, Nanotrap particles were incubated and harvested as described above, then resuspended in 50 μL of 1×PBS without calcium or magnesium. Total RNA was isolated from cell pellets and NT80/82 pellets bound with EVs using Trizol Reagent (Invitrogen) as described by the manufacturer's protocol. cDNA was generated using GoScript Reverse Transcription Systems (Promega) using Envelope Reverse: (5′-TGGGATAAGGGTCTGAAACG-3′ (SEQ ID NO:1); Tm=58° C.), and TAR Reverse: (5′-CAACAGACGGGCACACACTAC-3′ (SEQ ID NO:2), Tm=58° C.) primers. Serial dilutions of DNA from a CEM T-cell line containing a single copy of HIV-1 LAV provirus per cell (8E5 cells) were used as the quantitative standards. cDNA samples (2 μL/well) were plated into a Master Mix (18 μL/well) containing IQ Supermix (Bio-Rad), TAR Forward Primer (5′-GGTCTCTCTGGTTAGACCAGATCTG-3′ (SEQ ID NO:3)), TAR Reverse Primer (5′-CAACAGACGGGCACACACTAC-3′ (SEQ ID NO:4)), and TAR Probe (5′56-FAM-AG CCTCAATAAAGCTTGCCTTGAGTGCTTC-36-TAMSp-3′ (SEQ ID NO:5)). RT-qPCR conditions were as follows: one cycle for 2 min at 95° C. followed by 41 cycles of 95° C. for 15 s and 58° C. for 40 s. Reactions were performed in triplicate using the BioRad CFX96 Real Time System. Quantitation was determined using cycle threshold (Ct) values relative to the 8E5 standard curve using the BioRad CFX Manager Software. Analysis of generated raw data was analyzed using Microsoft Excel 2016.
Therefore, U1 monocytes were treated with a titration of CBD (1, 5, 10 μM) and THC (1, 5, 10 μg/mL) every day for 5 days. Total RNA was isolated from the harvested cell pellets followed by RT-qPCR analysis of 3 independent replicates for TAR and env RNAs.

cdk9/Cyclin Ti = target: T1, cdk9/Cyclin Ti (Homo sapiens, UniProt P50750); experiment: Kinase assay: cdk9 immunoprecipitate, phosphorylation of histone H1; type: biochemical; conditions: for phosphorylation of Histone H1: U1, CBD 1 μM, THC 1 μg/mL every day for 5 days, anti-cdk9 IP, FIG. 17 legend
T1 construct: Lysates were immunoprecipitated with 10 μg of cdk9 or IgG antibodies overnight at 4° C; endogenous in cells; host or cells: U1 cells treated with CBD or THC for 5 days, then lysed and immunoprecipitated with anti-cdk9
Protocol: U1 cells (5×10^6) were treated with CBD (1 μM) and THC (1 μg/mL) every day for 5 days. Cells were then lysed, centrifuged and the supernatants (˜150 ug) incubated with anti-cdk9 and IgG antibodies as described in the Kinase Assay section (Materials and Methods), ran on a 4-20% gel and dried, followed by imaging for phosphorylated Histone 1 (p-H1). p-H1 Densitometry counts were calculated on the kinase blot and normalized to background gel pieces.
U1 cells (5×10^6) were treated with CBD (1 μM) and THC 1 μg/mL) every day for 5 d. Cells were pelleted by centrifugation at 15,000×g for 5 minutes, washed with 1×PBS, and lysed in 250 μL lysis buffer. Lysates were immunoprecipitated with 10 μg of cdk9 or IgG antibodies overnight at 4° C., followed by a 2 h incubation with A/G beads at 4° C. IP complexes were washed with TNE50+0.1% NP40 buffer and kinase buffer as described in (Guendel et al., 2014, Novel Neuroprotective GSK-3β Inhibitor Restricts Tat-Mediated HIV-1 Replication. Journal of Virology, 88(2), 1189-1208), followed by 1 h incubation period at 37° C. with γ-^32P ATP and purified histone H1. The samples (50%) were loaded and run through SDS-PAGE on a 4-20% Tris-Glycine gel, followed by staining with Coomassie blue, destain with destain buffer (50% methanol and 10% acetic acid), and dried for 2 h. The dried gels were exposed to a PhosphorImager Cassette, followed by analysis via Molecular Dynamic's ImageQuant Software.
U1 monocytes were treated with CBD (10 μM) and Flavo (50 nM) for short periods (0, 2 and 6 hours) due to the fact that HIV-1 transcription activity is a rapid event that can be scored using chromatin immunoprecipitation (ChIP) assay for factor occupancy. Treated samples were lysed and incubated with IgG control and Pol II (serine 2/5) antibodies for ChIP, followed by qPCR analysis for TAR DNA. […] As expected, there was no change in amount of TAR DNA pulled down with PolII with any treatment compared to the untreated control at 0 hours samples (lanes 1-3).

[2] = 10 μM every day for 5 days, FIG. 15A lane 4

T1 sequence (P50750 whole entry): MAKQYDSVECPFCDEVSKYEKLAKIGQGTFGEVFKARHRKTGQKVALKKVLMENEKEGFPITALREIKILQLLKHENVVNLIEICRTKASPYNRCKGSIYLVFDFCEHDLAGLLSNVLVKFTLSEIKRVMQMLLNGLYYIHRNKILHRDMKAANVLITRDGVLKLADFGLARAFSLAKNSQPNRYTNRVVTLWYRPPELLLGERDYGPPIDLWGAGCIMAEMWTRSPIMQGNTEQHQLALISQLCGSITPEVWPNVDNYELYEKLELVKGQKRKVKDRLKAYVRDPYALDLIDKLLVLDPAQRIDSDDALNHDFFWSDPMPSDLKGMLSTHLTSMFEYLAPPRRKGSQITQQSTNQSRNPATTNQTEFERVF
T1 sequence (O60563 whole entry partner): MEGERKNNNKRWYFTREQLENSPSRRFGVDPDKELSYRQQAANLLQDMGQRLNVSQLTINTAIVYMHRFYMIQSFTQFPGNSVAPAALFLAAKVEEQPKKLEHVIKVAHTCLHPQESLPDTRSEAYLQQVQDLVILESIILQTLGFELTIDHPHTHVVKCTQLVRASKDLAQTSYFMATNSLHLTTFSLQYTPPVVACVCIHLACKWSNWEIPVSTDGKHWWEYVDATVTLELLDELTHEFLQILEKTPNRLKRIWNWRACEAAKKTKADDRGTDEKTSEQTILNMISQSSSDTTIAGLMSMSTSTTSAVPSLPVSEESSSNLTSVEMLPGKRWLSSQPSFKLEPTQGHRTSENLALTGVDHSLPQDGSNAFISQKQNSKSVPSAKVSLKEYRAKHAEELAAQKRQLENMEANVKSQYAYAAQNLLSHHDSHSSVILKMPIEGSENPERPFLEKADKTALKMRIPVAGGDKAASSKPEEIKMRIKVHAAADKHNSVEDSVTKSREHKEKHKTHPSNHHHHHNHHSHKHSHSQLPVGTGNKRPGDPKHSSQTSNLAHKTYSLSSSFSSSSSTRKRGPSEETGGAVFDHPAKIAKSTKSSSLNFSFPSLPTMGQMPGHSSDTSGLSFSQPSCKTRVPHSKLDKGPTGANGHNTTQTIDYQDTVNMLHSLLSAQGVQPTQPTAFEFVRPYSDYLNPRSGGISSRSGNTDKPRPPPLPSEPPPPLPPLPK

Compound | intracellular TAR RNA (HIV-1 transcription) [1] | intracellular env RNA (HIV-1 transcription) [1] | intracellular TAR RNA [1] | intracellular env RNA [1] | phosphorylation of Histone H1 (cdk9/Cyclin Ti) | decrease in intracellular TAR RNA compared to untreated control [1, 2] | decrease in intracellular env RNA compared to untreated control [1, 2] | cdk9/Cyclin Ti activity in vitro (cdk9/Cyclin Ti; FIG. 17)
CCCCCc1cc(O)c2c(c1)OC(C)(C)[C@@H]1CCC(C)=C[C@@H]21 [THC, Δ9-tetrahydrocannabinol] | only resulting in a decrease in the env RNA | decrease in the env RNA | not TAR RNA | only treatment with the highest concentration of THC resulted in a significant decrease | lower phosphorylation of Histone H1 |  |  | 
C=C(C)[C@@H]1CCC(C)=C[C@H]1c1c(O)cc(CCCCC)cc1O [CBD, 2-[1R-3-methyl-6R-(1-methylethenyl)-2-cyclohexen-1-yl]-5-pentyl-1,3-benzenediol] | decrease of both transcripts | decrease of both transcripts | dose-dependent decrease | dose-dependent decrease | lower phosphorylation of Histone H1 | 95% | 96% | did not inhibit
